Measured values published in paper PMC8765310, “Metabolism, Excretion, and Mass Balance of [^14C]-Rezafungin in Animals and Humans” (Antimicrobial Agents and Chemotherapy, 2022).
*1 amine or outer side, *2 acyl side, *3 side chain or, on linkers, in order; H or OH if unused. Where a SMILES comes first, the peptide text is derived from it. Bridges are numbered along the chain shown (N, C = ends). [ ]: non-standard residue; d: D form. The star is where a group is joined. Orn(4R-OH,5R-OCH2CH2NMe3+) = C[N+](C)(C)CCO[C@@H](N[*:3])[C@H](O)C[C@H](N[*:1])C(=O)[*:2]; pTerphenylCO(4''-OnC5H11) = CCCCCOc1ccc(-c2ccc(-c3ccc(C(=O)*)cc3)cc2)cc1; hTyr(3S-OH,4S-OH) = N[C@H](C(=O)O)[C@H](O)[C@@H](O)c1ccc(O)cc1; Pro(3S-OH,4S-Me) = C[C@H]1CN[C@H](C(=O)O)[C@H]1O; Hyp = O=C(O)[C@@H]1C[C@@H](O)CN1

How the values were obtained:
[1] = Human metabolite profiling (HPLC with radiochemical and HRMS detection); assay type: in vivo; conditions: 400 mg IV
Method: (§1) (iv) Metabolite profiling. Plasma samples were pooled across subjects through 672 h postdose to produce inter-subject time point pools. Urine and fecal homogenate samples were pooled by subject across various time points up through 408 and 672 h postdose, respectively. Selected samples of plasma, urine, and feces were profiled for rezafungin and metabolites by HPLC with radiochemical and high-resolution mass spectrometry detection; metabolites were identified by HPLC with known standards and/or by HPLC-MS/MS structure elucidation. Pharmacokinetics were calculated by non-compartmental analysis using Phoenix WinNonlin software (version 6.3/8.1; Pharsight, Mountain View, CA).

[2] = Human clinical pharmacokinetics (plasma rezafungin, plasma and whole blood total radioactivity); assay type: in vivo
Method: (i) Study design. This was an open-label, phase I, single-dose mass balance study. The study was conducted at Labcorp (formerly, Covance, Inc.; Madison, WI) in accordance with good clinical practice, including ICH guidelines and applicable regulatory requirements, and in general conformity with the Declaration of Helsinki. No animal work was conducted by Labcorp. All pertinent study documents were reviewed by the Institutional Review Board (IRB) prior to study initiation. Following IRB approval and collection of written informed consent, all the subjects underwent an initial screening assessment within 28 days of the first dose. Safety was assessed by vital signs, physical examinations, AE assessments, laboratory tests (chemistry, hematology, and urinalysis), and a 12-lead electrocardiogram.
Subjects were initially confined in the clinical research unit (CRU) for 17 days postdose and returned for two follow-up visits (days 29 and 60). Recovery of radioactivity was estimated by linear interpolation during the period of time subjects were away from the CRU. Blood samples, urine, and feces were collected at specified times over 60 days.
(ii) Sample analysis. Whole blood, plasma, urine, and fecal homogenate samples were mixed with scintillation fluid and analyzed by liquid scintillation counting. For non-radiolabeled rezafungin concentration determination, a bioanalytical method was validated for measuring rezafungin in human plasma that is similar to one previously reported for animal plasma ([16]). Samples were analyzed using a 100 μl aliquot volume and a protein-precipitation extraction procedure followed by liquid chromatography/tandem mass spectrometry (LC-MS/MS) analysis. Chromatography was carried out on a Waters Atlantis HPLC column (dC18, 2.1 × 50 mm, 5 μm) operating under reverse-phase gradient conditions (0.1% formic acid in water/0.1% formic acid in acetonitrile/tetrahydrofuran ramped from 55%/45%/0% to 5%/0%/95%). Rezafungin calibration range was 10.0 ng/ml to 10,000 ng/ml using isotopically-labeled d9-rezafungin as an internal standard. An AB-Sciex API 4000 mass spectrometer was operated in the multiple reaction monitoring mode (parent-to-product ion transition) under optimized conditions for detection of rezafungin (m/z 604.5 to 343.3 Da) and d9-rezafungin (m/z 609.5 to 343.3 Da) positive ions formed by electrospray ionization. Excellent intra- and inter-assay accuracy and precision, as measured by quality control (QC) samples, was obtained during validation. Across the range of QC samples tested (lower limit of quantitation, LLOQ, through the High QC range), the intra-assay accuracy (% bias from nominal) ranged from −1.4% to 7.0% with the intra-assay precision (% coefficient of variation) ranging from 1.6% to 7.4%. Inter-assay accuracy ranged from 0.3% to 4.3% with the inter-assay precision ranging from 2.7% to 5%.
as §1

[3] = Monkey blood and plasma radioactivity pharmacokinetics; assay type: in vivo, cynomolgus monkeys
Method: (ii) Monkey study design. The study used 3 male cynomolgus monkeys, each administered a single 10 mg/kg IV dose of [^14C]-rezafungin (with a target radioactivity of 100 μCi/kg of [^14C]-rezafungin) by infusion into a saphenous vein over 20 min. Whole blood and plasma samples were collected at each of the following time points: predose, 0.5, 2, 4, 8, 24, 48, 96 120, 144, 168, 240, 480, 720, and 1440 h postdose. Urine, feces, and cage washings were collected at predose (urine/feces only) and daily 24-h collections for 30 days.
(iii) Sample analysis. Whole blood and fecal homogenates were combusted prior to analysis by liquid scintillation counting (LSC). Blood, plasma, bile, urine, cage rinse/wash, and fecal homogenate samples were mixed with scintillation fluid and analyzed for radioactivity by LSC. Rat carcasses were dissolved in potassium hydroxide, and the resulting digests were mixed with scintillation fluid and analyzed for radioactivity by LSC.

[4] = single 400-mg IV infusion, LSC, mean (SD)
[5] = single 400-mg IV infusion, mean (SD)
[6] = single 400-mg IV infusion, median (min, max)

CCCCCOc1ccc(-c2ccc(-c3ccc(C(=O)N[C@H]4C[C@@H](O)[C@@H](OCC[N+](C)(C)C)NC(=O)[C@@H]5[C@@H](O)[C@@H](C)CN5C(=O)[C@H]([C@@H](C)O)NC(=O)[C@H]([C@H](O)[C@@H](O)c5ccc(O)cc5)NC(=O)[C@@H]5C[C@@H](O)CN5C(=O)[C@H]([C@@H](C)O)NC4=O)cc3)cc2)cc1 [rezafungin] ({pTerphenylCO(4''-OnC5H11)}-[Orn(4R-OH,5R-OCH2CH2NMe3+)]T[Hyp][hTyr(3S-OH,4S-OH)]T[Pro(3S-OH,4S-Me)]; lactam 1-C)
Share of total recovered radioactivity in feces ([1]; human feces pooled by subject through 672 h postdose): 90%
Share of total plasma radioactivity exposure ([1]; human plasma pooled across subjects through 672 h postdose, HPLC radio/HRMS): 69%
Share of total recovered radioactivity in urine ([1]; human urine pooled by subject through 408 h postdose): negligible
Cmax ([2]; male, plasma, single 400-mg IV infusion, LC-MS/MS, mean (SD), SD): 18900 ng/mL
AUC(0-inf) ([2]; male, plasma, single 400-mg IV infusion, LC-MS/MS, mean (SD), SD, read-out: AUC0-∞, plasma rezafungin): 2110 µg·h/mL
Vd ([2]; male, plasma, single 400-mg IV infusion, apparent volume of distribution, terminal phase, mean (SD), SD, read-out: VZ, plasma rezafungin): 88.6 L
Tmax ([2]; male, plasma, single 400-mg IV infusion, median (min, max)): 1 h
half-life ([2]; male, plasma, single 400-mg IV infusion, terminal elimination half-life, mean (SD), SD, read-out: t½, plasma rezafungin (converted)): 341 h
AUC(0-t) ([2]; plasma, 9 healthy male subjects, single 400-mg IV infusion (200 μCi), LC-MS/MS, arithmetic mean (SD), SD, read-out: AUC0-t, plasma rezafungin): 2050 µg·h/mL
AUC0-t, plasma total radioactivity ([2]; single 400-mg IV infusion (200 μCi), LSC, mean (SD)): 2600 (163) μg equivalent×hour/ml
AUC0-t, whole blood total radioactivity [2, 4]: 2390 (175) μg equivalent×hour/ml
AUC0-∞, plasma total radioactivity [2, 4]: 2750 (182) μg equivalent×hour/ml
AUC0-∞, whole blood total radioactivity [2, 4]: 2450 (200) μg equivalent×hour/ml
Cmax, plasma total radioactivity [2, 4]: 18.2 (2.28) μg/ml
Cmax, whole blood total radioactivity [2, 4]: 18.5 (2.24) μg/ml
t½, plasma total radioactivity [2, 5]: 387 (44.8) hours
t½, whole blood total radioactivity [2, 5]: 408 (39.7) hours
tmax, plasma total radioactivity [2, 6]: 1.00 (1.00, 1.00) hours
tmax, whole blood total radioactivity [2, 6]: 1.00 (1.00, 1.00) hours
t1/2 of plasma total radioactivity ([3]; monkey, IV [14C]-rezafungin 10 mg/kg, mean plasma concentrations): 170 h
Ratio of blood-to-plasma AUC (radioactivity) ([3]; monkeys, 10 mg/kg IV): approximately 1
Time of maximum blood and plasma radioactivity concentrations ([3]; monkeys, single IV 20-min infusion 10 mg/kg, first postdose sample): 0.5 h
